Values joined by “and” are separate entries in the source; they are usually repeats but may differ in a detail not shown here. Equal entries are not always repeated. Where two headings read alike, the source gives them in different places.
Assays:
CHO-K1 cells = test: Toxicity in RRA (loss of luciferase signal); settings: toxicity = loss of signal (<0.75 fold increase)
Experimental: The beta amyloid inhibitory activity of the compounds of the present invention was determined using the Repressor Release Assay (RRA).
“Fold Increase” refers to the amount of luciferase activity (measured in relative light units) over diluent control. “SEM” refers to the standard error of the mean for fold increase.

beta amyloid production = test: Repressor Release Assay (RRA); format: cell-based; settings: for APPI % of Example #98: relative to Example 98
Method in brief: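 Read-out is luciferase luminescence (RLU) after 36-48 h duplicate compound exposure of transfected CHO-K1 cells. These cells carry transiently introduced APP-lacI and pRSVO-luc DNA. Diluent control was 25 mM Hepes/1% DMSO; toxicity recorded as binary score (1 non-toxic, 0 toxic).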

[1] = Conc 20 μg/ml, luciferase activity over diluent control
[2] = Conc 10 μg/ml, luciferase activity over diluent control
[3] = Conc 20 μg/ml, luciferase activity over diluent control, read-out: APPI Fold Increase
[4] = Conc 20 μg/ml, 1=non-toxic, 0=toxic
[5] = Conc 20 μg/ml, luciferase activity (RLU) over diluent control, read-out: APPI Fold Increase

SMILES | (%)APPI Toxicity (CHO-K1 cells; Conc 20 μg/ml) | (%)APPI Toxicity (CHO-K1 cells; Conc 10 μg/ml) | fold induction at 20 µg/mL (beta amyloid production; [3]) | also measured
C[C@H](NS(=O)(=O)c1ccccc1F)[C@@H](O)c1ccccc1 [Example 111, 2-fluoro-N-[(1 S,2 S)-2-hydroxy-1-methyl-2-phenylethyl] benzenesulfonamide] | 1 (1=non-toxic) | – | – | APPI Fold Increase (beta amyloid production; [1]): 1.7 fold; APPI % of Example #98 (beta amyloid production; Conc 20 μg/ml): 47.8%
CCCCC(CO)NS(=O)(=O)c1ccccc1F (centres unmarked) [Example 110, 2-fluoro-N-[1-(hydroxymethyl)pentyl] benzenesulfonamide] | 1 (1=non-toxic) | – | – | APPI Fold Increase (beta amyloid production; [1]): 1.7 fold; APPI % of Example #98 (beta amyloid production; Conc 20 μg/ml): 46.5%
CC[C@H](C)[C@H](NS(=O)(=O)c1ccc(Br)cc1)C(O)c1ccc(OC)cc1 (stereo partly drawn) [Example 158, 4-bromo-N-{(11 S,2S)-1-[hydroxy(4-methoxyphenyl)methyl]-2-methylbutyl}benzenesulfonamide] | – | 1 (1=non-toxic) | – | APPI Fold Increase (beta amyloid production; [2]): 2.28 fold; APPI % of Example #98 (beta amyloid production; Conc 10 μg/ml): 101.49%
CC(C)[C@@H](CO)NS(=O)(=O)c1ccccc1F [Example 119, 2-fluoro-N-[(1S)-1-(hydroxymethyl)-2-methylpropyl]benzenesulfonamide] | 1 (1=non-toxic) | – | 1.5 | –
CC[C@H](C)[C@H](NS(=O)(=O)c1cccc(Cl)c1)C(C)O (stereo partly drawn) [Example 185, 3-chloro-N-[(1S,2S)-1-(1-hydroxyethyl)-2-methylbutyl]benzenesulfonamide] | – | 1 (1=non-toxic) | – | fold induction at 10 µg/mL (beta amyloid production; Conc 10 μg/ml, luciferase activity over diluent control, read-out: APPI Fold Increase): 1.51
O=S(=O)(N[C@H](CO)Cc1ccc(OCc2ccccc2)cc1)c1ccc(Cl)cc1 [Example 96, N-{(1S)-1-[4-(benzyloxy)benzyl]-2-hydroxyethyl}-4-chlorobenzenesulfonamide] | 1 (1=non-toxic) | – | 1.5 | –
CC[C@H](C)[C@H](NS(=O)(=O)c1ccc(Cl)cc1)C(O)(c1cccc2ccccc12)c1cccc2ccccc12 [Example 234, 4-chloro-N-((1S,2S)-1-{hydroxy[di(1-naphthyl)]methyl}-2-methylbutyl) benzenesulfonamide] | – | 1 (1=non-toxic) | – | APPI Fold Increase (beta amyloid production; [2]): 2.9 fold and 1.6 fold
CC(C)[C@@H](CO)NS(=O)(=O)c1c(Cl)cc(Cl)cc1Cl [Example 28, 2,4,6-trichloro-N-[(1S)-1-(hydroxymethyl)-2-methylpropyl]benzenesulfonamide] | 1 (1=non-toxic) | – | 1.5 | –
CC[C@H](C)[C@H](NS(=O)(=O)c1ccc(Br)cc1)C(O)CCC1OCCCO1 (stereo partly drawn) [Example 160, 4-bromo-N-{(1S)-4-(1,3-dioxan-2-yl)-2-hydroxy-1-[(1S)-1-methylpropyl]butyl} benzenesulfonamide] | – | 1 (1=non-toxic) | – | APPI Fold Increase (beta amyloid production; [2]): 1.66 fold; APPI % of Example #98 (beta amyloid production; Conc 10 μg/ml): 73.83%
CC[C@H](C)[C@@H](CO)NS(=O)(=O)c1ccc(Br)cc1 [Example 98, 4-bromo-N-[(1S,2S)-1-(hydroxymethyl)-2-methylbutyl]-benzenesulfonamide] | 1 (1=non-toxic) | 1 (1=non-toxic) | – | (%)APPI Toxicity (CHO-K1 cells; Conc 3 μg/ml): 1 (1=non-toxic); fold induction at 3 µg/mL (beta amyloid production; Conc 3 μg/ml, luciferase activity over diluent control, read-out: APPI Fold Increase): 1.79
CC[C@H](C)[C@@H](CO)N(CCSC)S(=O)(=O)c1ccc(Cl)cc1 [Example 47, 4-chloro-N-[(1S,2S)-1-(hydroxymethyl)-2-methylbutyl]-N-[2-(methylthio)ethyl]benzenesulfonamide] | 1 (1=non-toxic) | – | 2.4 | –
CC[C@H](C)[C@@H](CO)N(Cc1ccco1)S(=O)(=O)c1ccc(Cl)cc1 [Example 46, 4-chloro-N-(2-furylmethyl)-N-[(1S,2S)-1-(hydroxymethyl)-2-methylbutyl]benzenesulfonamide] | 1 (1=non-toxic) | – | 1.8 | –
CC(c1ccccc1)C(CO)NS(=O)(=O)c1ccc(Br)cc1 (centres unmarked) [Example 35, 4-bromo-N-[-1-(hydroxymethyl)-2-phenylpropyl]benzenesulfonamide] | 1 (1=non-toxic) | – | 2.4 | –
C[C@@H](c1ccccc1)[C@@H](CO)NS(=O)(=O)c1ccc(Br)cc1 [Example 82, 4-bromo-N-[(1S,2S)-1-(hydroxymethyl)-2-phenylpropyl]benzenesulfonamide] | – | – | – | (%)APPI Toxicity (CHO-K1 cells; [4]): 1 (1=non-toxic); fold induction at 20 µg/mL (beta amyloid production; [5]): 2.6
CC(C)C[C@@H](c1ccco1)[C@@H](CO)NS(=O)(=O)c1ccc(Br)cc1 [Example 86, 4-bromo-N-[(1S,2R)-2-(2-furyl)-1-(hydroxymethyl)-4-methylpentyl]benzenesulfonamide] | – | – | – | (%)APPI Toxicity (CHO-K1 cells; [4]): 1 (1=non-toxic); fold induction at 20 µg/mL (beta amyloid production; [5]): 1.6
CC[C@H](C)[C@@H](CO)NS(=O)(=O)c1ccc(Cl)c2nnoc12 [Example 4, 4-chloro-N-[(1S,2S)-1-(hydroxymethyl)-2-methylbutyl]-1,2,3-benzoxadiazole-7-sulfonamide] | 1 (1=non-toxic) | – | 1.5 | –

Source: patent publication US7166622B2, “Substituted phenylsulfonamide inhibitors of beta amyloid production” (Wyeth, priority 2002, dated 2007)
